Laboratory results: paper PMC2151593 (The Journal of General Physiology, 2006)
Each block holds one molecule with its values, some of them ahead of it.

Legend:
Shaker T449F = Shaker T449F (Drosophila melanogaster, UniProt P08510, C301S/C308S/DEL6-46/T449F); type: cell-based
[1] = target: T1, Shaker Thr449 (wild type) (Drosophila melanogaster, UniProt P08510, C301S/C308S/DEL6-46); experiment: Extracellular TEA block of voltage-clamped potassium currents, Shaker with Thr; type: cell-based; settings: Thr at 449 relative to Phe; ΔΔG = RT ln(K i,X/K i,Phe)
Shaker T449X, X = 4F-Phe = type: cell-based; settings: 4F-Phe at 449 relative to Phe; ΔΔG = RT ln(K i,X/K i,Phe)
[2] = system: Shaker T449X, X = 3,5F-Phe; type: cell-based; settings: 3,5F-Phe at 449 relative to Phe; ΔΔG = RT ln(K i,X/K i,Phe)
[3] = system: Shaker T449X, X = 3,4,5F-Phe; type: cell-based; settings: 3,4,5F-Phe at 449 relative to Phe; ΔΔG = RT ln(K i,X/K i,Phe)
Shaker T449X, X = Cha = type: cell-based
[4] = system: Shaker, fluorinated derivatives of Phe449; experiment: Voltage dependence of TEA block, all fluorinated derivatives of Phe449; type: cell-based
KcsA [5] = experiment: TEA block of KcsA; type: biochemical, Streptomyces lividans; settings: higher than for Shaker T449F
[6] = target: T1, Shaker Thr449 (wild type); settings: ref Heginbotham and MacKinnon, 1992; cited from earlier work
Shaker Tyr449 = settings: ref Heginbotham and MacKinnon, 1992; cited from earlier work
KcsA [7] = settings: read-out: K i for TEA block; KcsA (Tyr82); ref Heginbotham et al., 1999; cited from earlier work
[8] = benzene compared with hexafluorobenzene; ref Leo et al., 1971; cited from earlier work

- ΔΔG (Shaker T449F; Phe at 449 (reference), ΔΔG = RT ln(K i,X/K i,Phe), RT 0.58 kcal/mol): 0 kcal/mol
- ΔΔG [1]: 2.58 kcal/mol
SMILES: CC[N+](CC)(CC)CC [TEA, tetraethylammonium]
- ΔΔG (Shaker T449X, X = 4F-Phe): 1.23 kcal/mol
- ΔΔG [2]: 2.78 kcal/mol
- ΔΔG [3]: 3.54 kcal/mol
- ΔΔG (Shaker T449X, X = Cha; Cha at 449 relative to Phe, ΔΔG = RT ln(K i,X/K i,Phe)): 3.75 kcal/mol
- effect on TEA affinity (decrease relative to Phe) (Shaker T449X, X = Cha; nonaromatic residue Cha at 449): 640 fold
- voltage dependence of block [4]: 2–8%
- K i for TEA block of KcsA relative to Shaker T449F (KcsA [5]): ~10 fold
- fraction of the transmembrane electric field sensed by TEA [6]: 19%
- fraction of the transmembrane electric field sensed by TEA (Shaker Tyr449): 4%
- Ki (KcsA [7]): 3.2 mM

SMILES: CC[As+](CC)(CC)CC [TEAs, tetraethylarsonium]
- factor by which TEAs is a weaker blocker (larger inhibitory constant) than TEA (Shaker T449F; Shaker T449F, unpublished data): ~25 fold

SMILES: Fc1c(F)c(F)c(F)c(F)c1F [hexafluorobenzene]
- logP (water/octanol partition) [8]: nearly identical
